Experimental data reported in patent US20260209250A1, “CRYSTAL FORM OF KRAS G12D INHIBITOR AND PREPARATION METHOD THEREFOR” (priority 2022, published 2026).

Columns and labels:
[1] = Long-term/accelerated stability; assay type: physicochemical
[2] = Crystal form stability study (influencing factor experiments); assay type: physicochemical; conditions: for Physical and chemical properties (conclusion of influencing factor experiments): high temperatures and high humidities for 30 days
Description: Samples of the crystal forms A, B, C, I, J, and K of the compound represented by formula (I) were taken, spread in open containers, and left to stand under conditions of light exposure (4500 Lux), high temperatures (40° C. and 60° C.), and high humidities (RH 75% and RH 92.5%) for 30 days to investigate their stability, and the results are shown in Table 16.

[3] = 40° C., 10 days, open container
[4] = 40° C., 30 days, open container
[5] = 60° C., 10 days, open container
[6] = 60° C., 30 days, open container
[7] = 75% RH, 10 days, open container
[8] = 75% RH, 30 days, open container
[9] = 92.5% RH, 5 days, open container
[10] = 92.5% RH, 10 days, open container
[11] = 92.5% RH, 30 days, open container
[12] = light exposure (4500 Lux), 5 days, open container
[13] = light exposure (4500 Lux), 10 days, open container
[14] = light exposure (4500 Lux), 30 days, open container

CCc1c(F)ccc2cc(O)cc(-c3nc4c5c(nc(OC[C@@]67CCCN6C[C@H](F)C7)nc5c3F)N3C[C@H]5CC[C@H](N5)[C@H]3CO4)c12 [Crystal form A, 5-Ethyl-6-fluoro-4-((5aS,6S,9R)-1-fluoro-12-(((2R,7aS)-2-fluorotetrahydro-1H-pyrrolizin-7a(5H)-yl)methoxy)-5a,6,7,8,9,10-hexahydro-5H-4-oxa-3,10a,11,13,14-pentaaza-6,9-methanonaphtho[1,8-ab]heptalen-2-yl)naphthalen-2-ol]
Purity % 1 month ([1]; 25° C./60% RH): 99.3% | Purity % 3 months ([1]; 25° C./60% RH): 99.3% | Purity % 6 months ([1]; 25° C./60% RH): 99.3% | Purity % Initial ([1]; 25° C./60% RH): 99.3% | Purity % 1 month ([1]; 40° C./75% RH): 99.3% | Purity % 3 months ([1]; 40° C./75% RH): 99.2% | Purity % 6 months ([1]; 40° C./75% RH): 99.1% | Purity % Initial ([1]; 40° C./75% RH): 99.3% | Color and state ([2]; 40° C., 5 days, open container): Off-white solid | Crystal form ([2]; 40° C., 5 days, open container): Did not change | Purity % ([2]; 40° C., 5 days, open container): 99.2% | Color and state [2, 3]: Off-white solid | Crystal form [2, 3]: Did not change | Purity % [2, 3]: 99.2% | Color and state [2, 4]: Off-white solid | Crystal form [2, 4]: Did not change | Purity % [2, 4]: 99.1% | Color and state ([2]; 60° C., 5 days, open container): Off-white solid | Crystal form ([2]; 60° C., 5 days, open container): Did not change | Purity % ([2]; 60° C., 5 days, open container): 99.1% | Color and state [2, 5]: Off-white solid | Crystal form [2, 5]: Did not change | Purity % [2, 5]: 99.0% | Color and state [2, 6]: Off-white solid | Crystal form [2, 6]: Did not change | Purity % [2, 6]: 98.5% | Color and state ([2]; 75% RH, 5 days, open container): Off-white solid | Crystal form ([2]; 75% RH, 5 days, open container): Did not change | Purity % ([2]; 75% RH, 5 days, open container): 99.3% | Color and state [2, 7]: Off-white solid | Crystal form [2, 7]: Did not change | Purity % [2, 7]: 99.3% | Color and state [2, 8]: Off-white solid | Crystal form [2, 8]: Did not change | Purity % [2, 8]: 99.3% | Color and state [2, 9]: Off-white solid | Crystal form [2, 9]: Did not change | Purity % [2, 9]: 99.3% | Color and state [2, 10]: Off-white solid | Crystal form [2, 10]: Did not change | Purity % [2, 10]: 99.4% | Color and state [2, 11]: Off-white solid | Crystal form [2, 11]: Did not change | Purity % [2, 11]: 99.3% | Color and state ([2]; Initial, 0 days): Off-white solid | Purity % ([2]; Initial, 0 days): 99.3% | Physical and chemical properties (conclusion of influencing factor experiments) [2]: good physical and chemical properties | Color and state [2, 12]: Off-white solid | Crystal form [2, 12]: Did not change | Purity % [2, 12]: 98.7% | Color and state [2, 13]: Off-white solid | Crystal form [2, 13]: Did not change | Purity % [2, 13]: 98.5% | Color and state [2, 14]: Pale yellow solid | Crystal form [2, 14]: Did not change | Purity % [2, 14]: 95.8%

CCc1c(F)ccc2cc(O)cc(-c3nc4c5c(nc(OC[C@@]67CCCN6C[C@H](F)C7)nc5c3F)N3C[C@H]5CC[C@H](N5)[C@H]3CO4)c12 [Crystal form B, 5-Ethyl-6-fluoro-4-((5aS,6S,9R)-1-fluoro-12-(((2R,7aS)-2-fluorotetrahydro-1H-pyrrolizin-7a(5H)-yl)methoxy)-5a,6,7,8,9,10-hexahydro-5H-4-oxa-3,10a,11,13,14-pentaaza-6,9-methanonaphtho[1,8-ab]heptalen-2-yl)naphthalen-2-ol]
Purity % 1 month ([1]; 25° C./60% RH): 99.4% | Purity % 3 months ([1]; 25° C./60% RH): 99.3% | Purity % 6 months ([1]; 25° C./60% RH): 99.3% | Purity % Initial ([1]; 25° C./60% RH): 99.4% | Purity % 1 month ([1]; 40° C./75% RH): 99.3% | Purity % 3 months ([1]; 40° C./75% RH): 99.2% | Purity % 6 months ([1]; 40° C./75% RH): 99.1% | Purity % Initial ([1]; 40° C./75% RH): 99.4% | Color and state ([2]; 40° C., 5 days, open container): Off-white solid | Crystal form ([2]; 40° C., 5 days, open container): Did not change | Purity % ([2]; 40° C., 5 days, open container): 99.3% | Color and state [2, 3]: Off-white solid | Crystal form [2, 3]: Did not change | Purity % [2, 3]: 99.3% | Color and state [2, 4]: Off-white solid | Crystal form [2, 4]: Did not change | Purity % [2, 4]: 99.2% | Color and state ([2]; 60° C., 5 days, open container): Off-white solid | Crystal form ([2]; 60° C., 5 days, open container): Did not change | Purity % ([2]; 60° C., 5 days, open container): 99.3% | Color and state [2, 5]: Off-white solid | Crystal form [2, 5]: Did not change | Purity % [2, 5]: 99.2% | Color and state [2, 6]: Off-white solid | Crystal form [2, 6]: Did not change | Purity % [2, 6]: 99.1% | Color and state ([2]; 75% RH, 5 days, open container): Off-white solid | Crystal form ([2]; 75% RH, 5 days, open container): Did not change | Purity % ([2]; 75% RH, 5 days, open container): 99.3% | Color and state [2, 7]: Off-white solid | Crystal form [2, 7]: Did not change | Purity % [2, 7]: 99.4% | Color and state [2, 8]: Off-white solid | Crystal form [2, 8]: Did not change | Purity % [2, 8]: 99.3% | Color and state [2, 9]: Off-white solid | Crystal form [2, 9]: Did not change | Purity % [2, 9]: 99.4% | Color and state [2, 10]: Off-white solid | Crystal form [2, 10]: Did not change | Purity % [2, 10]: 99.4% | Color and state [2, 11]: Off-white solid | Crystal form [2, 11]: Did not change | Purity % [2, 11]: 99.4% | Color and state ([2]; Initial, 0 days): Off-white solid | Purity % ([2]; Initial, 0 days): 99.4% | Physical and chemical properties (conclusion of influencing factor experiments) [2]: good physical and chemical properties | Color and state [2, 12]: Off-white solid | Crystal form [2, 12]: Did not change | Purity % [2, 12]: 99.0% | Color and state [2, 13]: Off-white solid | Crystal form [2, 13]: Did not change | Purity % [2, 13]: 99.1% | Color and state [2, 14]: Pale yellow solid | Crystal form [2, 14]: Did not change | Purity % [2, 14]: 97.6%

CCc1c(F)ccc2cc(O)cc(-c3nc4c5c(nc(OC[C@@]67CCCN6C[C@H](F)C7)nc5c3F)N3C[C@H]5CC[C@H](N5)[C@H]3CO4)c12 [Crystal form C, 5-Ethyl-6-fluoro-4-((5aS,6S,9R)-1-fluoro-12-(((2R,7aS)-2-fluorotetrahydro-1H-pyrrolizin-7a(5H)-yl)methoxy)-5a,6,7,8,9,10-hexahydro-5H-4-oxa-3,10a,11,13,14-pentaaza-6,9-methanonaphtho[1,8-ab]heptalen-2-yl)naphthalen-2-ol]
Purity % 1 month ([1]; 25° C./60% RH): 99.7% | Purity % 2 months ([1]; 25° C./60% RH): 99.6% | Purity % 3 months ([1]; 25° C./60% RH): 99.6% | Purity % Initial ([1]; 25° C./60% RH): 99.7% | Purity % 1 month ([1]; 40° C./75% RH): 99.5% | Purity % 2 months ([1]; 40° C./75% RH): 99.4% | Purity % 3 months ([1]; 40° C./75% RH): 99.2% | Purity % Initial ([1]; 40° C./75% RH): 99.7% | Color and state ([2]; 40° C., 5 days, open container): Off-white solid | Crystal form ([2]; 40° C., 5 days, open container): Did not change | Purity % ([2]; 40° C., 5 days, open container): 99.3% | Color and state [2, 3]: Off-white solid | Crystal form [2, 3]: Did not change | Purity % [2, 3]: 99.3% | Color and state [2, 4]: Off-white solid | Crystal form [2, 4]: Did not change | Purity % [2, 4]: 98.5% | Color and state ([2]; 60° C., 5 days, open container): Off-white solid | Crystal form ([2]; 60° C., 5 days, open container): Did not change | Purity % ([2]; 60° C., 5 days, open container): 99.0% | Color and state [2, 5]: Off-white solid | Crystal form [2, 5]: Did not change | Purity % [2, 5]: 99.0% | Color and state [2, 6]: Off-white solid | Crystal form [2, 6]: Did not change | Purity % [2, 6]: 97.9% | Color and state ([2]; 75% RH, 5 days, open container): Off-white solid | Crystal form ([2]; 75% RH, 5 days, open container): Did not change | Purity % ([2]; 75% RH, 5 days, open container): 99.6% | Color and state [2, 7]: Off-white solid | Crystal form [2, 7]: Did not change | Purity % [2, 7]: 99.6% | Color and state [2, 8]: Off-white solid | Crystal form [2, 8]: Did not change | Purity % [2, 8]: 99.5% | Color and state [2, 9]: Off-white solid | Crystal form [2, 9]: Did not change | Purity % [2, 9]: 99.6% | Color and state [2, 10]: Off-white solid | Crystal form [2, 10]: Did not change | Purity % [2, 10]: 99.6% | Color and state [2, 11]: Off-white solid | Crystal form [2, 11]: Did not change | Purity % [2, 11]: 99.4% | Color and state ([2]; Initial, 0 days): Off-white solid | Purity % ([2]; Initial, 0 days): 99.7% | Physical and chemical properties (conclusion of influencing factor experiments) [2]: good physical and chemical properties | Color and state [2, 12]: Off-white solid | Crystal form [2, 12]: Did not change | Purity % [2, 12]: 99.2% | Color and state [2, 13]: Off-white solid | Crystal form [2, 13]: Did not change | Purity % [2, 13]: 98.7% | Color and state [2, 14]: Pale yellow solid | Crystal form [2, 14]: Did not change | Purity % [2, 14]: 97.9%
